Laboratory results from PMC11855478, “Bicyclic N,S-Acetals Containing Fused Cysteine-Amide System as New Heterocyclic Class Targeting Human Farnesyltransferase (FTase-h)” (International Journal of Molecular Sciences, 2025).

What was measured:
SF-539 (CNS Cancer) = assay: NCI one dose, SF-539; assay type: cell-based, human; settings: SF-539, 1.00E-5 Molar one dose
How it was run: (§1)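 Here the NCI sixty-cell human cancer panel served as the test system; after two days (48 h) on compound, remaining cell mass was assessed by sulforhodamine B.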

CAKI-1 (Renal Cancer) = assay: NCI one dose, CAKI-1; assay type: cell-based, human; settings: CAKI-1, 1.00E-5 Molar one dose
How it was run: as §1

[1] = system: EKVX (Non-Small Cell Lung Cancer); assay: NCI one dose, EKVX; assay type: cell-based, human; settings: 1.00E-5 Molar one dose
How it was run: as §1

SK-OV-3 (Ovarian Cancer) = assay: NCI one dose, SK-OV-3; assay type: cell-based, human; settings: SK-OV-3, 1.00E-5 Molar one dose
How it was run: as §1

LOX IMVI (Melanoma) = assay: NCI one dose, LOX IMVI; assay type: cell-based, human; settings: 1.00E-5 Molar one dose
How it was run: as §1

SNB-75 (CNS Cancer) = assay: NCI one dose, SNB-75; assay type: cell-based, human; settings: SNB-75, 1.00E-5 Molar one dose
How it was run: as §1

SR (Leukemia) = assay: NCI one dose, SR; assay type: cell-based, human; settings: 1.00E-5 Molar one dose
How it was run: as §1

[2] = system: HOP-62 (Non-Small Cell Lung Cancer); assay: NCI one dose, HOP-62; assay type: cell-based, human; settings: HOP-62, 1.00E-5 Molar one dose
How it was run: as §1

RXF 393 (Renal Cancer) = assay: NCI one dose, RXF 393; assay type: cell-based, human; settings: RXF 393, 1.00E-5 Molar one dose
How it was run: as §1

[3] = system: NCI-H322M (Non-Small Cell Lung Cancer); assay: NCI one dose, NCI-H322M; assay type: cell-based, human; settings: 1.00E-5 Molar one dose
How it was run: as §1

[4] = system: MDA-MB-468 breast cancer cells; assay: NCI one dose, MDA-MB-468; assay type: cell-based, human; settings: MDA-MB-468, 1.00E-5 Molar one dose
How it was run: as §1

TK-10 (Renal Cancer) = assay: NCI one dose, TK-10; assay type: cell-based, human; settings: TK-10, 1.00E-5 Molar one dose
How it was run: as §1

T-47D (Breast Cancer) = assay: NCI one dose, T-47D; assay type: cell-based, human; settings: 1.00E-5 Molar one dose
How it was run: (§2)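 NCI-run assay on its 60 human cancer cell lines, cytotoxicity determined via sulforhodamine B after 48 h of exposure.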

SK-MEL-5 (Melanoma) = assay: NCI one dose, SK-MEL-5; assay type: cell-based, human; settings: SK-MEL-5, 1.00E-5 Molar one dose
How it was run: as §1

[5] = system: NCI-H460 (Non-Small Cell Lung Cancer); assay: NCI one dose, NCI-H460; assay type: cell-based, human; settings: NCI-H460, 1.00E-5 Molar one dose
How it was run: as §2

UACC-257 melanoma cells = assay: NCI one dose, UACC-257; assay type: cell-based, human; settings: UACC-257, 1.00E-5 Molar one dose
How it was run: as §1

HCT-15 (Colon Cancer) = assay: NCI one dose, HCT-15; assay type: cell-based, human; settings: HCT-15, 1.00E-5 Molar one dose
How it was run: as §1

[6] = system: MDA-MB-231/ATCC (Breast Cancer); assay: NCI one dose, MDA-MB-231/ATCC; assay type: cell-based, human; settings: 1.00E-5 Molar one dose
How it was run: as §1

MDA-MB-435 (Melanoma) = assay: NCI one dose, MDA-MB-435; assay type: cell-based, human; settings: MDA-MB-435, 1.00E-5 Molar one dose
How it was run: as §2

SNB-19 (CNS Cancer) = assay: NCI one dose, SNB-19; assay type: cell-based, human; settings: SNB-19, 1.00E-5 Molar one dose
How it was run: as §1

UACC-62 (Melanoma) = assay: NCI one dose, UACC-62; assay type: cell-based, human; settings: UACC-62, 1.00E-5 Molar one dose
How it was run: as §1

[7] = system: panel of 60 human cancer cell lines; assay: NCI 60 cell panel one dose screen (whole panel); assay type: cell-based; set-up: Delta (One Dose Mean Graph): unit not given here; settings: 1.00E-5 Molar one dose
How it was run: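 Sulforhodamine B read-out after 48 h treatment at one high dose (10 µM), run on the full 60-line NCI human tumour cell panel.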

U251 (CNS Cancer) = assay: NCI one dose, U251; assay type: cell-based, human; settings: U251, 1.00E-5 Molar one dose
How it was run: as §1

SF-295 (CNS Cancer) = assay: NCI one dose, SF-295; assay type: cell-based, human; settings: SF-295, 1.00E-5 Molar one dose
How it was run: as §2

MCF7 (Breast Cancer) = assay: NCI one dose, MCF7; assay type: cell-based, human; settings: MCF7, 1.00E-5 Molar one dose
How it was run: as §1

OVCAR-8 (Ovarian Cancer) = assay: NCI one dose, OVCAR-8; assay type: cell-based, human; settings: OVCAR-8, 1.00E-5 Molar one dose
How it was run: as §2

MOLT-4 (Leukemia) = assay: NCI one dose, MOLT-4; assay type: cell-based, human; settings: MOLT-4, 1.00E-5 Molar one dose
How it was run: as §1

BT-549 (Breast Cancer) = assay: NCI one dose, BT-549; assay type: cell-based, human; settings: BT-549, 1.00E-5 Molar one dose
How it was run: as §1

HS 578T (Breast Cancer) = assay: NCI one dose, HS 578T; assay type: cell-based, human; settings: 1.00E-5 Molar one dose
How it was run: as §1

OVCAR-4 (Ovarian Cancer) = assay: NCI one dose, OVCAR-4; assay type: cell-based, human; settings: OVCAR-4, 1.00E-5 Molar one dose
How it was run: as §1

SF-268 (CNS Cancer) = assay: NCI one dose, SF-268; assay type: cell-based, human; settings: SF-268, 1.00E-5 Molar one dose
How it was run: as §1

COc1cccc(CNC(=O)[C@@H]2CS[C@H]3c4ccccc4C(=O)N23)c1 [4aE]
Growth Percent (SF-539 (CNS Cancer)): 110.14% | Growth Percent (CAKI-1 (Renal Cancer)): 96.42% | Growth Percent [1]: 111.45% | Growth Percent (SK-OV-3 (Ovarian Cancer)): 110.57% | Growth Percent (LOX IMVI (Melanoma)): 102.67% | Growth Percent (SNB-75 (CNS Cancer)): 100.11% | Growth Percent (SR (Leukemia)): 84.95% | Growth Percent [2]: 96.82% | Growth Percent (RXF 393 (Renal Cancer)): 101.84% | Growth Percent [3]: 105.81% | Growth Percent [4]: 106.71% | Growth Percent (TK-10 (Renal Cancer)): 89.04% | Growth Percent (T-47D (Breast Cancer)): 103.32% | Growth Percent (SK-MEL-5 (Melanoma)): 106.50% | Growth Percent [5]: 113.41% | Growth Percent (UACC-257 melanoma cells): 93.82% | Growth Percent (HCT-15 (Colon Cancer)): 105.05% | Growth Percent [6]: 107.16% | Growth Percent (MDA-MB-435 (Melanoma)): 107.01% | Growth Percent (SNB-19 (CNS Cancer)): 104.75% | Growth Percent (UACC-62 (Melanoma)): 102.11% | Delta (One Dose Mean Graph) [7]: 27.47 | Range (One Dose Mean Graph) ([7]; in % (unit assumed)): 39.82 | Mean Growth Percent ([7]; mean over tested cell lines): 101.56% | Growth Percent (U251 (CNS Cancer)): 102.42% | Growth Percent (SF-295 (CNS Cancer)): 99.74% | Growth Percent (MCF7 (Breast Cancer)): 98.52% | Growth Percent (OVCAR-8 (Ovarian Cancer)): 100.28% | Growth Percent (MOLT-4 (Leukemia)): 80.83% | Growth Percent (BT-549 (Breast Cancer)): 110.89% | Growth Percent (HS 578T (Breast Cancer)): 98.68% | Growth Percent (OVCAR-4 (Ovarian Cancer)): 112.11% | Growth Percent (SF-268 (CNS Cancer)): 100.53%
